Measurements: patent US8247170B2, “Detection of penicillin tolerance in Group B Streptococcus: single nucleotide polymorphisms in penicillin binding protein 4” (priority 2008, dated 2012)

Test system: GBS laboratory strains
Assay: MBC90:MIC90 ratio method of determining antibiotic tolerance
Type: cell-based, Group B Streptococcus
Settings: for Phenotype: by MBC:MIC ratio; for MBC: 24 h, ≧90% non-viable cells, plate counts after 24 h antibiotic; for MIC: ≧90% growth-inhibited, OD600
Experimental: The inventors ascertained the incidence of antibiotic tolerance in GBS clinical isolates collected from cervicovaginal-rectal swabs, by investigating cell wall inhibitors used to eliminate GBS colonization in pregnant women before delivery as stated by the CDC guidelines. A ratio of the minimum bactericidal concentration (MBC) over minimum inhibitory concentration (MIC) after 24 h of antibiotic incubation or by determining quantitative kill curves has been used to define antibiotic tolerance previously.
The MBC:MIC ratio was calculated for laboratory strains using three β-lactam antibiotics (Penicillin G, Ampicillin, and Cefazolin) and a glycopeptide antibiotic (Vancomycin) (Table 1). Early-log phase cultures of GBS were treated with the individual antibiotics at a concentration of 0.25 to 512×MIC90. The optical density (OD600) of antibiotic treated cultures was used to determine the MIC90 after 24 h and a cell count was used to determine their MBC90. Susceptible, tolerant and intermediate strains were defined by their MBC:MIC ratio of ≦2:1, ≧32:1 and 4:1-16:1 respectively. […] The ratios characterized GBS strains A909 and 2603V/R as Susceptible, O90R as Tolerant, and NEM316 as Intermediate to Penicillin, Ampicillin, and Cefazolin. All four strains were susceptible to Vancomycin.
(I) Bacterial Strains and Culture Conditions. GBS strains A909 (serotype IA), 515 (serotype IA), NEM316 (serotype III), COHI (serotype III), 2603V/R (serotype V) and O90R (non-typable) were used in this study. E. coli Top10 cells were used for the recombination experiments. GBS was cultured in Todd Hewitt broth (THB) or Tryptic Soy 5% sheep blood (TS) media and E. coli in Luria-broth (LB) medium or agar. Antibiotics were used at the following concentrations: for GBS—penicillin G (MIC90 0.06 μg ml^−1), ampicillin (MIC90 0.12 μg ml^−1), vancomycin (MIC90 2 μg ml^−1), cefazolin (MIC90 1 μg ml^−1) and chloramphenicol (5 μg ml^−1); for E. coli—ampicillin (50 μg ml^−1) and chloramphenicol (5 μg ml^−1). Both GBS and E. coli cultures were grown at 37° C. (II) Tolerance Using the MBC:MIC Ratio Method. Three GBS laboratory strains (i.e., A909, NEM316, and O90R) were cultured overnight for 18 h at 37° C. in THB. Subcultures in THB were subsequently grown to exponential phase (OD600˜0.3; i.e. 5×10^5 cfu/ml) at 37° C. Cell cultures were then exposed to different concentrations of antibiotics (Penicillin G, Ampicillin, Cefozolin or Vancomycin). […] Cell cultures were dispersed every 18 h before OD600 was measured to determine the lowest concentration of antibiotic with 90% growth inhibition (MIC90). Antibiotic treated cells (8 μl) from each well were re-suspended into PBS (100 μl) and plated (54 μl) on TS agar plates and allowed to grow for an additional 24 h at 37° C. Cell count was performed to determine the lowest concentration of antibiotic with 90% killing of original inoculums (MBC90). (III) Penicillin Killing and Regrowth Tolerance Assay by Microbroth Dilution. Three GBS laboratory strains (i.e., A909, NEM316, and O90R) were cultured overnight for 18 h at 37° C. in THB. Subcultures in THB were subsequently grown to exponential phase (OD600˜0.3) at 37° C. Cell cultures were then exposed to different concentrations of Penicillin G (Sigma, St. Louis, Mo.). […] Cell cultures were dispersed. A 1:20 dilution of cells was re-plated into new wells containing fresh THB with 500 U Penase (to degrade residual penicillin). Cell cultures were allowed to re-grow for an additional 24 h at 37° C. before the OD600 was measured. (IV) Measuring Cell Viability by Determining ATP Concentration. GBS strains were cultured for 18 h at 37° C. in THB. These cells were inoculated into fresh THB and subsequently allowed to grow to exponential phase (OD600 0.25-0.3) at 37° C. One ml of each culture was centrifuged at 5,000×g for 4 min. The cell pellet was re-suspended in ATP-free water. […]

[1] = Streptococcus, GBS strain 2603V/R
[2] = Streptococcus, GBS strain NEM316

`CC1(C)S[C@@H]2[C@H](NC(=O)Cc3ccccc3)C(=O)N2[C@H]1C(=O)O` [Penicillin G] was tested, and the “Ratio (MBC90:MIC90)” value (GBS strain 2603V/R) was 1, the Phenotype (GBS strain 2603V/R) was “S (MBC:MIC ratio of ≦2:1)” and the Phenotype (GBS strain 2603V/R, listed as Penicillin) was “Susceptible”. For the same compound, the “Ratio (MBC90:MIC90)” value (GBS strain A909) was 1, the Phenotype (GBS strain A909) was “S (MBC:MIC ratio of ≦2:1)” and the Phenotype (GBS strain A909, listed as Penicillin) was “Susceptible”. The “Ratio (MBC90:MIC90)” value (GBS strain NEM316) was 8, the Phenotype (GBS strain NEM316) was “I (4:1-16:1)” and the Phenotype (GBS strain NEM316, listed as Penicillin) was “Intermediate”. The “Ratio (MBC90:MIC90)” value (GBS strain O90R) was 32, the Phenotype (GBS strain O90R) was “PT (≧32:1)” and the Phenotype (GBS strain O90R, listed as Penicillin) was “Tolerant”. The MBC [1] was 0.06 µg/mL, the MBC (Streptococcus, GBS strain A909) was 0.06 µg/mL and the MBC [2] was 0.48 µg/mL. For the same compound, the MBC (Streptococcus, GBS strain O90R) was 3.84 µg/mL, the MIC [1] was 0.06 µg/mL and the MIC (Streptococcus, GBS strain A909) was 0.06 µg/mL. The MIC [2] was 0.06 µg/mL, the MIC (Streptococcus, GBS strain O90R) was 0.12 µg/mL and the MIC90 (Streptococcus, for GBS, as stated under culture conditions) was 0.06 µg/mL.
